Measured values reported in patent publication US20240408096A1, “DOSING REGIMENS FOR ORAL ALK2 KINASE INHIBITORS” (BioCryst Pharmaceuticals, Inc., priority 2020, published 2024).
“Also recorded” adds a separate entry of the source.

What was measured:
[1] = Phase 1 Parts 1 and 2 blood pressure pharmacodynamics / exposure-response; format: in vivo, human
Excerpt: Where possible, systolic and diastolic BP measurements will be used to determine the change from baseline between each active treatment relative to that obtained on subjects receiving placebo within a study part. At each time point blood pressure data is collected, an individual subject's change from baseline will be calculated.

wtALK2 = target: T1, wtALK2 (Homo sapiens, UniProt Q04771); assay: wtALK2 functional assays; format: biochemical; settings: several functional assays; read-out: wtALK2 activity potency (IC50)
T1 sequence (Q04771 21-509): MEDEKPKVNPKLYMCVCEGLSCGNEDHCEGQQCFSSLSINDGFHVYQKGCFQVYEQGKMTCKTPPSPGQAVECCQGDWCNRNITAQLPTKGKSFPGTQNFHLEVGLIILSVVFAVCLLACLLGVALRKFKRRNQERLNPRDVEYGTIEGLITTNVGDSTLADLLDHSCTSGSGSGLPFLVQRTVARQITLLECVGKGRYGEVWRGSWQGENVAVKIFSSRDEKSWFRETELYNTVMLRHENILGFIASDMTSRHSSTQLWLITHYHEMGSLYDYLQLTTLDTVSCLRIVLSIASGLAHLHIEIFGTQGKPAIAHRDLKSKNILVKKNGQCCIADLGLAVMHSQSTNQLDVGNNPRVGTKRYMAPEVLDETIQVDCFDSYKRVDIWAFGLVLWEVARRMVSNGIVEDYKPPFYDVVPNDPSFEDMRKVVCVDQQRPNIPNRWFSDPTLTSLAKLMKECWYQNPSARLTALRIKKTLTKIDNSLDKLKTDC

[2] = Phase 1 Part 2 (MAD) plasma PK; format: in vivo, human; settings: for Cmax / AUC0-24 / Tmax / AUCtau / Ctau / t1/2: Part 2 MAD; for Cmax / AUC0-24 / AUCtau / Ctau: geometric mean (CV%); for Tmax / t1/2: median (min, max)
Procedure: Four sequential MAD cohorts were dosed.
For each cohort of Part 2, the daily dose of study drug was administered as a single dose (1 time daily or QD). Similar to Part 1 of the study, following a screening period to determine eligibility, subjects in each cohort entered the CRU on the […] of Day −1. Study eligibility was re-confirmed upon admission to the CRU, and subjects remained in the CRU overnight prior to dosing on Day 1. Subjects received a final morning dose of study drug on the last day of dosing. Subjects were discharged from the CRU following sample collection on Day 11. Dosage administration was supervised by study personnel and all subjects completed dosing per protocol. […] Subjects returned to the CRU on Day 23 (+2 days) for final follow-up safety assessments.
Serial venous blood samples were withdrawn via an indwelling cannula or by venipuncture according to the schedule in Tables 4 and 5 for Parts 1 and 2, respectively. Samples were collected into 4 mL lithium heparin tubes. The acceptable deviations from the nominal blood sampling times in Part 1 and Part 2 are as follows: the pre-dose blood sample will be taken ≤1 hour before dosing; 0 to 1 hour post-dose samples will be taken within +2 minutes of the nominal post-dose sampling time; >1 to 12 hours post-dose samples will be taken within +10 minutes of the nominal post-dose sampling time; and >12 hours post-dose samples will be taken within +30 minutes of the nominal post-dose sampling time if subjects are resident in the clinic. […]
In all derivations of PK parameters, 0 will be substituted for concentrations below the quantification limit (BQL) of the assay. Samples that are BQL but are between 2 samples with detectable concentrations will be excluded from PK analysis.
Dose proportionality was evaluated over all fasted doses within a study part based upon AUC0-inf (Part 1), AUCtau (Part 2), AUC0-t, and Cmax using the power model. The analysis was performed for Day 1 (Parts 1 and 2) and Day 7 (Part 2).
Dose proportionality for PK parameters was assessed by restricted maximum likelihood using SAS PROC MIXED (SAS STAT software, Cary N.C.). The mean slope was estimated from the power model and the corresponding 90% confidence interval (CI) calculated. Dose proportionality was also examined using an analysis of variance (ANOVA) method, where PK parameters for each dose were compared with a reference dose on a pair-wise basis. The ratio of geometric least squares (GLS) means and the corresponding 90% CI was estimated for each PK parameter of interest.
Accumulation ratios were calculated using AUC values from serial sampling after the first and last dose in Part 2. […] A mixed-effects model with a fixed effect for day and a random subject effect was used to estimate the difference between AUCtau and AUC0-t on the log scale.
Time to steady-state was evaluated in Part 2 using Ctrough (observed plasma concentration immediately before dosing) levels, where sufficient samples existed to determine steady state. The following timepoints were used in the analysis for once daily dosing: 24, 48, and 72 hours post dose (for Day 1) and pre-dose and 24 hours post dose on the last day of dosing (Day 7).

[3] = all cohorts and placebo subjects

With `COc1cc(-n2cnc(Nc3nc(N4CCC[C@H]4C(N)=O)nc4sccc34)c2)cc(OC)c1OC.O=C(O)CC(O)(CC(=O)O)C(=O)O` [Compound A] as the compound, how does the “correlation of BP with dose or exposure” value ([1]; Parts 1 and 2) read?
Its value is “no meaningful correlation”.

And the “slope of Δ diastolic BP-concentration model” value [1, 3]?
Its value is 0.00151.

What about the “slope of Δ systolic BP-concentration model” value [1, 3] of the same compound?
Its value is 0.00686.

What about the IC50 (wtALK2) of the same compound?
The IC50 was under 100 nM.

What about the “Day 1 AUC0-24, geometric least square mean” value ([2]; 5 mg QD) of the same compound?
The value was 797.89 ng·h/mL.

What about the “Day 7 AUCtau, geometric least square mean” value (from here on “Day 7 AUCtau”) ([2]; 5 mg QD) of the same compound?
The value was 915.48 ng·h/mL.

What about the “Day 1 AUC0-24, geometric least square mean” value ([2]; 10 mg QD) of the same compound?
Its value is 1703.36 ng·h/mL.

And the “Day 7 AUCtau” value ([2]; 10 mg QD)?
Its value is 2022.93 ng·h/mL.

And the “Day 1 AUC0-24, geometric least square mean” value ([2]; 15 mg QD)?
The value was 2204.47 ng·h/mL.

And the “Day 7 AUCtau” value ([2]; 15 mg QD)?
The value was 2303.26 ng·h/mL.

What about the “Day 1 AUC0-24, geometric least square mean” value ([2]; 20 mg QD) of the same compound?
The value was 3159.74 ng·h/mL.

What about the “Day 7 AUCtau” value ([2]; 20 mg QD) of the same compound?
The value was 3184.88 ng·h/mL.

What about the “median Tmax” value ([2]; Part 2, Days 1 and 7, all dosing cohorts) of the same compound?
Its value is “approximately 2.0 hours”.

And the “time to steady state” value ([2]; Part 2, QD dosing, from trough concentrations)?
Its value is at most 3 days.

And the accumulation ([2]; Part 2, each MAD cohort, 7 days QD)?
The accumulation was “No accumulation or minimal accumulation”.

What about the “dose proportionality of plasma exposure” value ([2]; Part 2, multiple oral doses 5 to 20 mg, healthy subjects) of the same compound?
Its value is “exhibits dose proportionality; also recorded: approximately linear and dose proportional”.

What about the Cmax ([2]; Day 1, 5 mg QD oral, fasted) of the same compound?
The Cmax was 105.0 (45.9) ng/ml.

What about the AUC0-24 ([2]; Day 1, 5 mg QD) of the same compound?
Its AUC0-24 is 797.9 (37.8) ng · h/mL.

What about the Tmax ([2]; Day 1, 5 mg QD) of the same compound?
Its Tmax is 2.009 (1.01, 4.01) h.

What about the Cmax ([2]; Day 1, 10 mg QD oral, fasted) of the same compound?
Its Cmax is 217.0 (46.2) ng/ml.

What about the AUC0-24 ([2]; Day 1, 10 mg QD) of the same compound?
The AUC0-24 was 1703 (37.4) ng · h/mL.

What about the Tmax ([2]; Day 1, 10 mg QD) of the same compound?
Its Tmax is 2.009 (2.01, 3.01) h.

And the Cmax ([2]; Day 1, 15 mg QD oral, fasted)?
Its Cmax is 324.2 (34.9) ng/ml.

What about the AUC0-24 ([2]; Day 1, 15 mg QD) of the same compound?
The AUC0-24 was 2204 (39.0) ng · h/mL.

What about the Tmax ([2]; Day 1, 15 mg QD) of the same compound?
The Tmax was 2.006 (1.01, 4.00) h.

And the Cmax ([2]; Day 1, 20 mg QD oral, fasted)?
Its Cmax is 464.1 (26.1) ng/ml.

And the AUC0-24 ([2]; Day 1, 20 mg QD)?
Its AUC0-24 is 3160 (21.2) ng · h/mL.

And the Tmax ([2]; Day 1, 20 mg QD)?
The Tmax was 2.007 (2.00, 3.00) h.

What about the AUCtau ([2]; Day 7, 5 mg QD) of the same compound?
Its AUCtau is 915.5 (40.7) ng · h/mL.

What about the Cmax ([2]; Day 7, 5 mg QD) of the same compound?
The Cmax was 117.0 (44.4) ng/ml.

And the Ctau ([2]; Day 7, 5 mg QD)?
Its Ctau is 10.70 (72.6) ng/ml.

What about the Tmax ([2]; Day 7, 5 mg QD) of the same compound?
Its Tmax is 2.007 (1.01, 3.03) h.

And the t1/2 ([2]; Day 7, 5 mg QD)?
Its t1/2 is 8,846 (4.73, 25.1) h.

And the AUCtau ([2]; Day 7, 10 mg QD)?
Its AUCtau is 2023 (29.7) ng · h/mL.

What about the Cmax ([2]; Day 7, 10 mg QD) of the same compound?
Its Cmax is 238.0 (22.6) ng/ml.

What about the Ctau ([2]; Day 7, 10 mg QD) of the same compound?
Its Ctau is 25.47 (68.1) ng/ml.

What about the Tmax ([2]; Day 7, 10 mg QD) of the same compound?
The Tmax was 2.021 (2.01, 3.01) h.

And the t1/2 ([2]; Day 7, 10 mg QD)?
Its t1/2 is 8.512 (6.09, 12.3) h.

What about the AUCtau ([2]; Day 7, 15 mg QD) of the same compound?
The AUCtau was 2303 (24.9) ng · h/mL.

And the Cmax ([2]; Day 7, 15 mg QD)?
Its Cmax is 333.5 (29.7) ng/ml.

And the Ctau ([2]; Day 7, 15 mg QD)?
The Ctau was 19.02 (59.6) ng/ml.

What about the Tmax ([2]; Day 7, 15 mg QD) of the same compound?
Its Tmax is 2.006 (1,01, 3.00) h.

What about the t1/2 ([2]; Day 7, 15 mg QD) of the same compound?
The t1/2 was 7.534 (4.05, 12.2) h.

And the AUCtau ([2]; Day 7, 20 mg QD)?
Its AUCtau is 3185 (24.4) ng · h/mL.

And the Cmax ([2]; Day 7, 20 mg QD)?
Its Cmax is 413.9 (14.9) ng/ml.

And the Ctau ([2]; Day 7, 20 mg QD)?
Its Ctau is 30.75 (66.5) ng/ml.

What about the Tmax ([2]; Day 7, 20 mg QD) of the same compound?
The Tmax was 2.001 (1.00, 3.00) h.

What about the t1/2 ([2]; Day 7, 20 mg QD) of the same compound?
The t1/2 was 8.332 (4.61, 11.0) h.

And the “dose proportionality of steady state Cmax” value ([2]; Part 2 multiple ascending oral dose cohorts (FIG. 7))?
Its value is “approximately linear and dose-proportional”.

And the “dose proportionality of steady state AUCtau” value ([2]; Part 2 multiple ascending oral dose cohorts (FIG. 8))?
The value was “approximately linear and dose-proportional”.
